These results are taken from paper PMC3983388 (Journal of Medicinal Chemistry, 2014).

Converted amounts (≈) assume the structure as drawn.

For data set [1] the following is noted: in vivo, po; cited from earlier work.
The mark [2] stands for this setting: pH 6.8, aqueous solubility pH 6.8.

`Cc1ccnc(NC(c2ccc([N+](=O)[O-])cc2)c2ccc3cccnc3c2O)c1` (centres unmarked) [Compound 34] had a solubility in “physchem” (setting [2]) of 0.0741 µM (≈ 0.0286 µg/mL). The same measure, in the same setting: the figure for `Cc1ccnc(NC(c2ccc([N+](=O)[O-])cc2)c2ccc3ccc(C)nc3c2O)c1` (centres unmarked) [Compound 35] is 0.0659 µM (≈ 0.0264 µg/mL).

In the case of `COc1ccc(C(Nc2ccccn2)c2ccc3cccnc3c2O)cc1` (centres unmarked) [Compound 36], in “physchem” (setting [2]), the concentration in solution (solubility) was 0.0053 µM (≈ 0.00189 µg/mL). Regarding `COc1ccc(C(Nc2ccccn2)c2ccc3ccc(C)nc3c2O)cc1` (centres unmarked) [Compound 37], the solubility in the data set “physchem” (setting [2]) was 0.0338 µM (≈ 0.0126 µg/mL).

In the case of `Oc1c(CNc2ccccn2)ccc2cccnc12` [Compound 56, 7-(((Pyridin-2-yl)amino)methyl)quinolin-8-ol], the concentration in solution in “physchem” (setting [2]) (solubility) came to 0.111 µM (≈ 0.0279 µg/mL). As for `Oc1c(C(Nc2ccccn2)c2ccccc2)ccc2cccnc12` (centres unmarked) [Compound 57, 7-(Phenyl((pyridin-2-yl)amino)methyl)quinolin-8-ol], the solubility is roughly 1200 µM (≈ 393 µg/mL) in “physchem” (pH 1, aqueous solubility pH 1.0) and 0.078 µM (≈ 0.0255 µg/mL) in the data set “physchem” (setting [2]).

In turn, `Oc1c(I)cc(Cl)c2cccnc12` [Compound 58, 5-chloro-7-iodo-8-hydroxy-quinoline, reference compound] displayed a solubility in “physchem” (setting [2]) of less than 0.001 µM. Also, in data set [1], the serum levels is 13 to 25 µM. In the data set “physchem” (setting [2]), `Oc1c(Cl)cc(Cl)c2cccnc12` [Compound 60, 5,7-dichloro-8-hydroxy-quinoline, reference compound] came in with a solubility of 0.5 µM (≈ 0.107 µg/mL). With `Cc1ccc2c(Cl)cc(Cl)c(O)c2n1` [Compound 61, 5,7-dichloro-2-methyl-8-hydroxy-quinoline], in “physchem” (setting [2]), the solubility was 0.394 µM (≈ 0.0899 µg/mL).
